Laboratory results published in PMC8273889, “Exploiting Electrode Nanoconfinement to Investigate the Catalytic Properties of Isocitrate Dehydrogenase (IDH1) and a Cancer-Associated Variant” (The Journal of Physical Chemistry Letters, 2021).

How the values were obtained:
Type in all cases: biochemical
[1] = target: T1, IDH1 (isocitrate dehydrogenase 1) (Homo sapiens, UniProt O75874); assay: electrochemical turnover (cyclic voltammetry) with nanoconfined purified enzyme
T1 construct: homodimeric (2 × 47 kDa)

[2] = target: T1, IDH1 (isocitrate dehydrogenase 1); assay: bidirectional cyclic voltammetry of 2OG/isocitrate interconversion with CO2 supplied by carbonic anhydrase
[3] = target: T2, IDH1 R132H (isocitrate dehydrogenase 1) (Homo sapiens, UniProt O75874, R132H); assay: electrochemical turnover (cyclic voltammetry) with nanoconfined purified enzyme
T2 construct: homodimeric (2 × 47 kDa)
T2 sequence (O75874 2-414 R132H): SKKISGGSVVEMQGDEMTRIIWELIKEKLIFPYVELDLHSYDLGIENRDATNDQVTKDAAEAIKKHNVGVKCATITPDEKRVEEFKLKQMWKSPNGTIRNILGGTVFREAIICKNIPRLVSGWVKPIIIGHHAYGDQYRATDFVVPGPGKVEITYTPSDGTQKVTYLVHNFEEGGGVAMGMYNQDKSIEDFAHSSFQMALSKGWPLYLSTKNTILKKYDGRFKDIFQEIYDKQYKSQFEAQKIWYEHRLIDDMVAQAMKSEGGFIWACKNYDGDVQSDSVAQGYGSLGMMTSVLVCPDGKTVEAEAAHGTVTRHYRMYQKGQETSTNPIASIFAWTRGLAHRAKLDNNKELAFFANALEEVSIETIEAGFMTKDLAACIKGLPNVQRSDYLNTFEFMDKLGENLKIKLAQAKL

T1 sequence (O75874 2-414): as the sequence (O75874 2-414 R132H) above, with H131R counted along it

Row | SMILES | electrochemical turnover (cyclic voltammetry) with nanoconfined purified enzyme [1] | bidirectional cyclic voltammetry of 2OG/isocitrate interconversion with CO2 supp [2] | electrochemical turnover (cyclic voltammetry) with nanoconfined purified enzyme [3]
1 | O=C(O)CC(C(=O)O)C(O)C(=O)O (stereo not drawn) [isocitrate] | IDH1 (Figure 1A, B) is an excellent catalyst for isocitrate oxidation |  | 
2 | O=C(O)CCC(=O)C(=O)O [2OG, 2-oxoglutarate] |  | Cyclic voltammetry measuring bidirectionality of IDH1-catalyzed 2OG/isocitrate interconversion at different 2OG/isocitrate ratios | R132H-catalyzed 2OG reduction (Figure 1C, D) is much slower, manifesting low currents
